The values below come from PMC5095863 (Chembiochem, 2016).

Type in all cases: biochemical
One test deals with T1, SIRT1 (Homo sapiens, UniProt Q96EB6).
T1 sequence (Q96EB6 1-747): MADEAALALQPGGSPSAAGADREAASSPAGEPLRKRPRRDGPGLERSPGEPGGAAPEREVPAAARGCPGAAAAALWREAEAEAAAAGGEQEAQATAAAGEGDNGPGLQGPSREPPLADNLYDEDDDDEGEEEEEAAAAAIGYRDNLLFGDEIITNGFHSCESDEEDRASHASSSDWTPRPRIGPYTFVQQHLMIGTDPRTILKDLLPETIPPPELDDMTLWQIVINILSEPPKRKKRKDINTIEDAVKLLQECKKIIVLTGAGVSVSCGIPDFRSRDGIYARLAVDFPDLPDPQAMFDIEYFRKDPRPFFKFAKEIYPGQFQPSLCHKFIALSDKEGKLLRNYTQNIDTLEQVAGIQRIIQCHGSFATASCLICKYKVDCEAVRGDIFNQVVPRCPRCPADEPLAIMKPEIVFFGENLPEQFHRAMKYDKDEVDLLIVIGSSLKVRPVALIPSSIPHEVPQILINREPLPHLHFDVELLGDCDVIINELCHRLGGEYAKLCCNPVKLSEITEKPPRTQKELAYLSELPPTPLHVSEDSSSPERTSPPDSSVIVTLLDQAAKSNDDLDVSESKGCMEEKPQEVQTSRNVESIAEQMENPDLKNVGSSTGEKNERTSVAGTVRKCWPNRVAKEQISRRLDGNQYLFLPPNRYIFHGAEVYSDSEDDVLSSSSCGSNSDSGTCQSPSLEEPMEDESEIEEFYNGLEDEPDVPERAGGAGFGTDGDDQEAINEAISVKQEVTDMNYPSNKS
As to the kind of experiment: Evaluation of SIRT inhibitors and activators with SFP3, SIRT1. The note with it: hydrolysis of 2.5 μM SFP3, 7 nM SIRT1, 500 μM NAD+, 37 °C, 60 min.

Test [1] deals with T2, SIRT6 (Homo sapiens, UniProt Q8N6T7). Briefly: Evaluation of SIRT inhibitors and activators with SFP3, SIRT6.
T2 sequence (Q8N6T7 whole entry): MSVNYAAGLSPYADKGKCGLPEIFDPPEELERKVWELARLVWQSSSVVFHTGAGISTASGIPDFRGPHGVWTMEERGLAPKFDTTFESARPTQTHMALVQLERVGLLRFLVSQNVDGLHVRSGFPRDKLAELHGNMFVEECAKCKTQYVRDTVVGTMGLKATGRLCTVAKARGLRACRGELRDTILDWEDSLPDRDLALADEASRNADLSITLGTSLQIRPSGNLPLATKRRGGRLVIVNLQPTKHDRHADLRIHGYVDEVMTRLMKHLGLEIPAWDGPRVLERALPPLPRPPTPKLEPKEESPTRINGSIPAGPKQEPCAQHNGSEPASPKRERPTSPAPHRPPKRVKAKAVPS
Test [2] has as its target T2, SIRT6. As to the kind of experiment: Fluorescence enhancement due to enzymatic reaction of SFP1-3 with SIRT6. Conditions: 5 mM NAM, 48 nM SIRT6, 500 μM NAD, 37 °C.

Usually IC50 stands for the point on the concentration scale where inhibition reaches its midpoint. A lower IC50 goes with greater potency in that assay. Regarding `Oc1ccc(/C=C/c2cc(O)cc(O)c2)cc1` [Resveratrol, resveratrol], the “effect on SIRT1 activity” value on SIRT1 was “did not affect”. Also, the IC50 against SIRT6 [1] was about 190 µM.

On to `NC(=O)c1cccnc1` [NAM, nicotinamide], for which, at SIRT6 [2], the “effect on SIRT6-dependent fluorescence increments of SFP2 and SFP3” value is listed as “suppressed”.

For `O=c1c(O)c(-c2ccc(O)c(O)c2)oc2cc(O)cc(O)c12` [Quercetin, quercetin], the “effect on SIRT1 activity” value at SIRT1 is “inhibition at lower concentration, but activation at higher concentration”. Further, the “effect on SIRT6 activity” value at SIRT6 [1] (hydrolysis of 2.5 μM SFP3, 48 nM SIRT6, 500 μM NAD+, 37 °C, 60 min) is on record as “inhibition at lower concentration, but activation at higher concentration”.
